Source: PubChem BioAssay AID179 (DTP/NCI, 2004)
The source made the active and inactive calls.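 How the source made its calls: active means compounds giving half or more protection of infected cells from virus-caused growth loss, again on retest; inactive means the rest.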

Test system: CEM cells HIV-1 protection, formazan growth assay
Experiment: NCI AIDS Antiviral Assay
Settings: for IC50: measured here: growth of uninfected CEM cells
In short: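 Category rules: moderately active means at least 50% protection on retest, and confirmed active means 100% protection reproducibly. The underlying data came from a formazan growth assay in HIV-1-infected CEM cells.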

| SMILES | EC50 [µM] | IC50 [µM] | outcome |
| --- | --- | --- | --- |
| N#Cc1ccccc1SSc1ccccc1C#N | > 200 | 11.7 | – |
| Cc1nc2c(O)cc(Br)c(O)c2nc1C | – | – | inactive |
| CCOc1csc([C@H]2CCC3[C@@H]4CC=C5C[C@@H](O)CC[C@]5(C)C4CC[C@@]32C)n1 (some centres undefined) | > 3.39 | > 3.39 | – |
| O=C(N/N=C/c1ccccn1)c1ccccc1[O-].O=C(N/N=C/c1ccccn1)c1ccccc1[O-].[Mn+2] | > 200 | 11.2 | – |
| NC(=O)N/N=C1/CCCC/C1=C\c1ccccc1 | – | – | inactive |
| CC1(C)C(=O)/C(=C/c2ccccc2)C(C)(C)C1(C)C | – | – | inactive |
| CCOC(=O)C(C(=O)OCC)C(NC(=O)Nc1cc(C(F)(F)F)ccc1OC)(C(F)(F)F)C(F)(F)F | – | – | inactive |
| CN(C)C=Nc1cccc2cnccc12 | > 200 | 166 | – |
| O=C(CCc1nnc2s/c(=C\c3ccc4c(c3)OCO4)c(=O)n12)Nc1cc(Cl)ccc1Cl | 72.4 | 513 | – |
| CC(=O)OC1(CSc2ccccc2)CCCCC1 | > 200 | 49 | – |
| COc1ccc2c(c1OC)C(C=C(c1ccccc1)c1ccccc1)CN(C)C2 (centres undefined) | > 93.3 | 15.8 | – |
| CC12CCCC3(CC(=O)C(C)(C)C3C(=O)C1)C2 (centres undefined) | > 200 | > 200 | – |
| CC[C@@H]1CC[C@@H]2[C@H](CC[C@]3(C)[C@@H](OC(C)=O)CC[C@@H]23)[C@H]1C(=O)OC | > 200 | 24.5 | – |
| CC(C)/C=C/c1cc(/C=C/C(=O)c2cc(/C=C/C(C)C)c(O)cc2O)ccc1O | – | – | inactive |
| O=C1C=CC2(CCC23C=CC(=O)O3)O1 (centres undefined) | > 135 | 7.94 | – |
| CN(C)c1ccc(/C=C(\C#N)c2ccccc2Br)cc1 | > 40.7 | 3.98 | – |
| CCOC(=O)c1c(N)n(-c2ccccc2)c(=S)n(-c2ccccc2)c1=O | > 178 | > 178 | – |
| O=C1CC(CC(O)C(O)C(O)CO)CC(=O)N1 (centres undefined) | > 200 | > 200 | – |
| CCOC(=O)C(C(=O)c1ccccc1)C(=O)c1ccccc1 | > 45.7 | > 45.7 | – |
| O=C1NC(=O)C(SSC2C(=O)NC(=O)NC2=O)C(=O)N1 | > 200 | > 200 | – |
| CC(=O)Oc1ccc(-c2oc3c([C@H]4C=C(C)CC(c5ccc(OC(C)=O)cc5OC(C)=O)[C@@H]4C(=O)c4ccc(OC(C)=O)c(CC=C(C)C)c4O)c(OC(C)=O)cc(O)c3c(=O)c2CC=C(C)C)c(OC(C)=O)c1 (some centres undefined) | > 5.13 | > 5.13 | – |

| SMILES | EC50 [µM] | IC50 [µM] | outcome |
| --- | --- | --- | --- |
| O=C1c2scc(-c3ccc(F)cc3)c2-n2cccc21 | > 200 | 30.2 | – |
| COCOc1ccc(Cn2c(=O)n(C)c(=O)c3c2ncn3C)cc1[N+](=O)[O-] | > 50.1 | > 50.1 | – |
| COC1/C=C/OC2(C)Oc3c(C)c(O)c4c(O)c(cc(OCC(=O)N(C)C5CCCCC5)c4c3C2=O)NC(=O)/C(C)=C/C=C/C(C)C(O)C(C)C(O)C(C)C(OC(C)=O)C1C (centres undefined) | > 200 | 12.3 | – |
| O=C(Nc1cccc2ccccc12)N1CCCC(Br)C1 (centres undefined) | > 200 | 195 | – |
| CCOC1OC(c2ccccc2)=NS(=O)(=O)C1(C)C (centres undefined) | > 891 | 513 | – |
| COC1/C=C/OC2(C)Oc3c(C)c(O)c4c(O)c(c(/C=N/Nc5ncccn5)c(O)c4c3C2=O)NC(=O)C(C)=C/C=C/C(C)C(O)C(C)C(O)C(C)C(OC(C)=O)C1C (centres undefined) | > 151 | 9.12 | – |
| Cn1c(=O)ccc2c1nc1ccccc1[n+]2[O-] | > 60.3 | > 60.3 | – |
| CC(C)CCCC(C)[C@H]1CCC2[C@@H]1CC[C@@H]1[C@@]3(C)CC[C@H](CCC=C(c4cc(Cl)c(OCC(=O)O)c(C(=O)O)c4)c4cc(Cl)c(OCC(=O)O)c(C(=O)O)c4)C[C@@H]3CC[C@@]21C (some centres undefined) | > 200 | 1.7 | – |
| O=C1c2ccccc2C(=O)C1(Cl)C(Cl)c1ccc([N+](=O)[O-])cc1 (centres undefined) | > 200 | 12 | – |
| CCC12C=CCN(C1)C(=O)Cc1c([nH]c3ccccc13)/C(=N/NC(=O)OC)C2 (centres undefined) | > 52.5 | > 52.5 | – |
| CC(=O)c1ccccc1NC(=O)C(=O)C(C(=O)c1ccccc1-c1ccccc1)C1OC(=O)c2ccccc21 (centres undefined) | > 50.1 | 26.9 | – |
| CNC1C(OC2C(OC3C(O)C(O)C(O)C(O)C3O)OC(C)C2(O)CO)OC(CO)C(O)C1O (centres undefined) (tested in a mixture with another compound) | – | – | inactive |
| CC1CC2OC(=N)C1(C#N)C2(C#N)C#N (centres undefined) | > 200 | 10.5 | – |
| O=C(Nc1ccn(C2CCC(COC(c3ccccc3)(c3ccccc3)c3ccccc3)O2)c(=O)n1)c1ccccc1 (centres undefined) | > 200 | 9.77 | – |
| Cc1nc(Nc2ccc([N+](=O)[O-])cc2)sc1C(/C=C/c1ccc(N(C)C)cc1)=N/NC(=O)c1ccccc1 | > 13.8 | > 13.8 | – |
| COC1CC(OC2C(C)OC(OC3C(C)OC(OC4C(C)OC(O[C@H]5CC[C@@]6(C)C(=CC[C@]7(O)[C@@H]6C[C@@H](OC(=O)/C=C(\C)C(C)C)[C@@]6(C)[C@]7(O)CC[C@@]6(O)C(C)=O)C5)CC4OC)CC3OC)CC2OC)OC(C)C1O (some centres undefined) | > 200 | 27.5 | – |
| Oc1ccc(/C=C/c2cc(O)cc3c2[C@@H](c2cc(O)cc(O)c2)C(c2ccc(O)cc2)O3)cc1 (some centres undefined) | > 31.6 | 16.6 | – |
| O=S1(=O)C2CCCCC2(N2CCOCC2)C1c1ccccc1 (centres undefined) | > 407 | 45.7 | – |
| O=C1CN2C=CC=CC2=NN1 | > 603 | 407 | – |
| O=S(O)CCCCCSSSCCCCCS(=O)O | – | – | inactive |
| CCOC(=O)C(=O)Nc1ccc(Cl)cc1C | > 389 | 331 | – |

| SMILES | EC50 [µM] | IC50 [µM] | outcome |
| --- | --- | --- | --- |
| COc1ccc2c(c1)CCC1C3(CCCC21C=O)OCCO3 (centres undefined) | > 166 | > 166 | – |
| O=C1c2ccccc2Sc2ccccc2N1CCCCCN1CCN(c2ccc(F)cc2)CC1 | > 200 | 8.91 | – |
| C1CSCCSS[C@@H]2CCCCC2SC1 (some centres undefined) | > 33.9 | > 33.9 | – |
| CC1(CO)OC(n2cc(C(=O)NC(=O)OCc3ccccc3)c(=O)[nH]c2=O)CC1O (centres undefined) | > 603 | 372 | – |
| COc1ccccc1NC(=O)C1=C(C)NC(C)=C(C(=O)Nc2ccccc2OC)C1c1ccccc1Cl | – | – | inactive |
| Nc1ncnc2c1ccn2CC=C(CO)CO | > 200 | > 200 | – |
| O=C(NN1C(=O)C=CC1=O)c1ccccc1Nc1ccccc1C(=O)NN1C(=O)C=CC1=O | 63.1 | 191 | – |
| COC(=O)C1=CC2C(=O)c3ccccc3C1(c1ccccc1)N2C1CCCCC1 (centres undefined) | > 200 | 21.4 | – |
| CC(C)(C)C(=O)/C=C/c1ccc(Oc2ccccc2)cc1 | > 25.7 | > 25.7 | – |
| N#CC(C(=O)CCCC(=O)Nc1ccc(Cl)cc1Cl)c1ccccc1 (centres undefined) | > 661 | > 661 | – |
| N#Cc1nc(C(F)(F)F)oc1N | – | – | inactive |
| CC1=NOC2(C1)/C(=N/O)CCC/C2=N\O (centres undefined) | > 200 | > 200 | – |
| CN1Cc2ccccc2/C=C\c2ccccc21 | > 200 | 132 | – |
| O=C(C(c1ccccc1)c1ccccc1)C(O)(c1ccccc1)c1ccccc1 | 30.9 | 34.7 | – |
| C/C=C1/CN2CCc3c4n(c5ccccc35)[C@@H](CO)C1CC42 (some centres undefined) | > 61.7 | > 61.7 | – |
| C/C(=N/NC(N)=S)C(CN1CCOCC1)C(C1=C(O)c2ccccc2OC1)c1ccccc1 (centres undefined) | > 37.2 | > 37.2 | – |
| Cc1[nH]c(-c2ccccc2)c(O)c1C(=O)OC12CC3CC(CC(C3)C1)C2 | > 200 | 30.9 | – |
| COc1ccc(/C=C/c2onc3c(=O)n(C)nc(-c4ccccc4)c23)cc1 | > 20 | > 20 | – |
| C1=c2ccccc2=C2C(=C(c3ccccc3)C(c3ccccc3)=NN2c2ccccc2)S1 | > 4.68 | > 4.68 | – |
| CC(=O)[O-].N.N.N.N.N.[Co+3].[O-][Cl+3]([O-])([O-])[O-] | – | – | inactive |
| O=c1c(=[n+]2ccc(=C([O-])c3ccccc3)cc2)/c(=N/S(=O)(=O)c2ccccc2)c(=O)c2ccccc12 | > 200 | 6.17 | – |

| SMILES | EC50 [µM] | IC50 [µM] | outcome |
| --- | --- | --- | --- |
| Nc1ccn(CCOC(=O)c2ccccc2)c(=O)n1 | > 52.5 | > 52.5 | – |
| CCOC(=O)C1Nc2ccc([N+](=O)[O-])cc2[C@H]2OCC[C@@H]12 (some centres undefined) | > 447 | > 447 | – |
| Cc1c(CCN=P(c2ccccc2)(c2ccccc2)c2ccccc2)c(=O)n2c([nH]c3ccccc32)c1C#N | > 200 | 31.6 | – |
| Cc1ccc(C(=O)N(C2CCCCC2)C2CCCCC2)cc1N=NN(C)C | > 19.5 | > 19.5 | – |
| CS1(C)=NC(=O)c2cc([N+](=O)[O-])ccc2N=1 | > 123 | > 123 | – |
| Cc1csc2nc(-c3cccs3)nn12 | > 200 | > 200 | – |
| NC(=S)N/N=C\CC(O)(C(F)(F)F)C(F)(F)F | > 200 | > 200 | – |
| C=C1C(=O)OC2/C=C(\C)C3OC3/C=C(/C(=O)OC)C(O)C(OC(=O)C3(C)OC3C)C12 (centres undefined) | > 120 | 0.302 | – |
| BrCCC[P+](c1ccccc1)(c1ccccc1)c1ccccc1 | > 20 | 0.912 | – |
| CC(=O)O[C@@H]1CC[C@]2(C)C3C[C@H](OC(C)=O)[C@]4(C)C(C(C)CCc5nc6ccccc6o5)CCC4C3[C@H](OC(C)=O)C[C@@H]2C1 (some centres undefined) | > 50.1 | 8.51 | – |
| CON(C)C(=O)CNC(=O)OCC1c2ccccc2-c2ccccc21 | > 200 | > 100 | – |
| C#CCCCCC#Cc1ccccc1C(=O)OC | > 151 | 28.8 | – |
| Cn1c(=O)c2c(nc3n2CCCC(=O)N3CCCCl)n(C)c1=O | > 100 | > 100 | – |
| O=c1[nH]c(CO)nc(O)c1Cl | > 200 | > 200 | – |
| O=C(Nc1ccc(/C=C/c2ccc(NC(=O)c3ccc(O)cc3O)cc2S(=O)(=O)O)c(S(=O)(=O)O)c1)c1ccc(O)cc1O | > 151 | 126 | – |
| CC(C)CCC[C@@H](C)C1CCC2[C@@H]3CC(O)C4C[C@@H](OS(=O)(=O)O)CC[C@]4(C)C3CC[C@@]21C (some centres undefined) | > 49 | 24.5 | – |
| O=C(O)C1[C@@H](C(=O)O)C1(Br)CBr (some centres undefined) | > 200 | > 200 | – |
| C[C@@]1(CO[N+](=O)[O-])OC(=O)N2CCC[C@H]21 | > 1150 | > 1150 | – |
| CCOC(=O)/C(=C\c1ccc(-c2ccccc2)cc1)C(C)=O | > 45.7 | > 45.7 | – |
